# Assays:
# Saccharomyces cerevisiae = experiment: Assay for antifungal activity (agar well zone of inhibition); format: cell-based
# Experimental: Yeast organism (Saccharomyces cerevisiae) in logarithmic growth were plated on complete agar medium (YPD). Compounds dissolved in an appropriate aqueous or organic solvent were placed in wells punched in the agar. Plates were incubated for 48 hours and zones of inhibition were measured. The potency of compounds were quantified by regression analysis of plots of inhibition zone versus the log of drug concentration.
# Spleen cells = experiment: Mitogenesis assay for immunosuppressive activity (Concanavalin A stimulated spleen cells, 3H-thymidine); format: cell-based, BDF1 female mice
# Experimental: Spleen cells for BDF1 female mice were established in RPMI with 10% fetal calf serum at 5×10^6 /mL. One hundred […] of this suspension (5×10^5 cells) were dispensed into 96-well round-bottomed microtiter plates (Linbro, Flow Laboratories). Concanavalin A (5 μg/ml) was added as the mitogenic stimulus, and the final volume in the microliter wells was adjusted to 200 μL with RPMI. Cell cultures were incubated for 72 hours at 37° C. in a 5% CO2 atmosphere and pulsed with 0,5 μCi ^3 H-thymidine (specific activity […]) for the last 18 hours of the 72 hours culture. The cells were harvested on an automated multiple sample harvester and cell-associated radioactivity counted in a Beckman liquid scintillation counter. The results were expressed as the mean values derived from quadruplicate measurements. Cell viability was determined by trypan blue exclusion after 72 hours of incubation. Compounds to be tested were added to the microtiler plates at the appropriate dilutions prior to the addition of cells.
substance,measurement,setting,value
"13,14-Bis(dihydro)rapamycin",antifungal activity (in words),Saccharomyces cerevisiae,shows antifungal activity
same,"Antifungal Activity, IC12","Saccharomyces cerevisiae; Saccharomyces cerevisiae on YPD agar, 48 hours, zones of inhibition",190 to 840 ng/mL
same,immunomodulatory activity (in words),Spleen cells,shows immunomodulatory activity
same,IC50,"Spleen cells; spleen cells of BDF1 mice, Concanavalin A 5 μg/ml, 72 hours",0.07 to 0.2 µM

# From US5583018A, “Rapamycin derivative process for its preparation and its use” (SmithKline Beecham p.l.c., priority 1993, dated 1996)
